The values below come from ChEMBL document CHEMBL5247664, “Structure-activity relationship of BMS906024 derivatives for Cryptosporidium parvum growth inhibition” (Bioorg Med Chem Lett, 2023).

As usually defined, the EC50 is the concentration needed to bring the measured effect to its halfway point. In general, EC90 refers to the concentration at which the effect reaches the 90% level.

Common to all, as to type: functional, organism-based
Assay [1] has as its system Cryptosporidium parvum. Kind of assay: Antiparasitic activity against Cryptosporidium parvum infected in human HCT-8 cells assessed as parasitic growth inhibition measured for 48 hrs by fluorescence based microscopic analysis. The note with it: for EC50: HCT-8, 48 h; for EC90: HCT-8, time 48 hrs.
The test system of assay [2] is Cryptosporidium parvum. Put plainly: Antiparasitic activity against Cryptosporidium parvum assessed as parasitic growth inhibition measured for 24 hrs.
Assay [3] concerns Cryptosporidium parvum. Put plainly: Antiparasitic activity against Cryptosporidium parvum infected in human HCT-8 cells assessed as parasitic growth inhibition incubated for 45 mins followed by compound washout further infected in cells and measured after 48 hrs by microscopic analysis.
Assay [4] concerns Cryptosporidium parvum. Kind of assay: Antiparasitic activity against Cryptosporidium parvum assessed as parasitic growth inhibition.

As to `CN1C(=O)[C@@H](NC(=O)[C@H](CCC(F)(F)F)CC(=O)N2CCOCC2)N=C(c2ccccc2)c2ccccc21`, in the assay with Cryptosporidium parvum [1], the concentration giving a half-maximal response (EC50) was found to be 52 nM and the EC90 came to 100 nM.
In the same order, the values of `CN1C(=O)[C@H](NC(=O)[C@H](CCC(F)(F)F)CC(=O)N2CCCCC2)N=C(c2ccccc2)c2cc(Cl)c(OC3COC3)cc21` are 5470 nM and 12800 nM.
In the same order, the values of `CN1C(=O)[C@H](NC(=O)[C@H](CCC(F)(F)F)CC(=O)N2CCCCC2)N=C(c2ccccc2)c2ccc(OC3COC3)cc21` are 2290 nM and 4900 nM.
As for `CN1C(=O)[C@@H](NC(=O)[C@H](CCC(F)(F)F)CC(=O)N2CCCCC2)N=C(c2ccccc2)c2ccc(OC3CCC3)cc21`, in the assay on Cryptosporidium parvum [1], the EC50 stood at 77 nM and the EC90 worked out at 160 nM.
On the same counts, the results for `CN1C(=O)[C@@H](NC(=O)[C@H](CCC(F)(F)F)CC(=O)N2CCCCC2)N=C(c2ccccc2)c2ccc(Oc3ccccc3)cc21` are 25 nM and 55 nM.
In the same order, the values of `CCCNC(=O)C[C@@H](CCC(F)(F)F)C(=O)N[C@@H]1N=C(c2ccccc2)c2ccc(OC3COC3)cc2N(C)C1=O` are > 25000 nM and > 25000 nM.
On the same counts, the results for `CN1C(=O)[C@@H](NC(=O)[C@H](CCC(F)(F)F)CC(=O)N2CCCCC2)N=C(c2ccccc2)c2ccccc21` are 6.4 nM and 16 nM.
Regarding `CCCNC(=O)CCC(=O)N[C@H]1N=C(c2ccccc2)c2ccccc2N(C)C1=O`, in the assay on Cryptosporidium parvum [1], the EC50 was > 25000 nM and the concentration for an effect of 90% (EC90) was > 25000 nM.
In the case of `CN1C(=O)[C@@H](NC(=O)[C@H](CCC(F)(F)F)CC(=O)OC(C)(C)C)N=C(c2ccccc2)c2ccccc21`, in the assay with Cryptosporidium parvum [1], the EC50 amounted to 550 nM and the EC90 stood at 1120 nM.
With `C[C@H](NC(=O)Cc1cc(F)cc(F)c1)C(=O)N[C@H](C(=O)OC(C)(C)C)c1ccccc1`, the EC50 with Cryptosporidium parvum [2] amounted to 12500 nM.
Regarding `CN1C(=O)[C@H](NC(=O)[C@H](CCC(F)(F)F)CC(=O)N2CCCCC2)N=C(c2ccccc2)c2ccc(Oc3ccccc3)cc21`, in the assay with Cryptosporidium parvum [1], the EC50 stood at 1690 nM and the EC90 was 3610 nM.
On the same counts, the results for `CN1C(=O)[C@@H](NC(=O)C[C@H](CCC(F)(F)F)C(N)=O)N=C(c2ccccc2)c2ccccc21` are 25000 nM and > 25000 nM.
As to `CN1C(=O)[C@@H](NC(=O)[C@H](CCC(F)(F)F)CC(N)=O)N=C(c2ccccc2)c2ccccc21`, in the assay with Cryptosporidium parvum [1], the EC50 was > 25000 nM and the EC90 is > 25000 nM.
For `CCN(CC)C(=O)C[C@@H](CCC(F)(F)F)C(=O)N[C@H]1N=C(c2ccccc2)c2ccccc2N(C)C1=O`, the EC50 with Cryptosporidium parvum [1] was 110 nM; in the assay on Cryptosporidium parvum [3] it was 500 nM. The EC90 in the assay with Cryptosporidium parvum [1] amounted to 310 nM.
With `CCCNC(=O)C[C@H](CCC(F)(F)F)C(=O)N[C@H]1N=C(c2ccccc2)c2ccccc2N(C)C1=O`, in the assay on Cryptosporidium parvum [1], the half-maximal effective concentration (EC50) is > 25000 nM and the EC90 was > 25000 nM.
Regarding `CN1C(=O)[C@@H](NC(=O)[C@H](CCC(F)(F)F)CC(=O)N2CCCCC2)N=C(c2ccccc2)c2cc(Cl)c(OC3COC3)cc21`, in the assay with Cryptosporidium parvum [1], the EC50 came to 320 nM and the EC90 was determined as 960 nM.
On the same counts, the results for `CCCNC(=O)C(C)(C)CC(=O)N[C@H]1N=C(c2ccccc2)c2ccccc2N(C)C1=O` are > 25000 nM and > 25000 nM.
As for `COc1ccc2c(c1)N(C)C(=O)[C@@H](NC(=O)[C@H](CCC(F)(F)F)CC(=O)N1CCCCC1)N=C2c1ccccc1`, in the assay with Cryptosporidium parvum [1], the EC50 came out at 31 nM and the 90% effect concentration (EC90) came out at 66 nM.
In the same order, the values of `CCCNC(=O)[C@@H](CCC(F)(F)F)CC(=O)N[C@H]1N=C(c2ccccc2)c2ccccc2N(C)C1=O` are > 25000 nM and > 25000 nM.
`CCCN(CCC)C(=O)C[C@@H](CCC(F)(F)F)C(=O)N[C@H]1N=C(c2ccccc2)c2ccccc2N(C)C1=O`: in the assay with Cryptosporidium parvum [1], the EC50 was 1450 nM and the EC90 stood at 2790 nM.
In the same order, the values of `CCCNC(=O)C[C@@H](CCC(F)(F)F)C(=O)N[C@H]1N=C(c2ccccc2)c2ccccc2N(C)C1=O` are 18 nM and 56 nM.
On the same counts, the results for `CCC[C@H](CC(=O)N1CCCC1)C(=O)N[C@H]1N=C(c2ccccc2)c2ccccc2N(C)C1=O` are 110 nM and 230 nM.
With `CN1C(=O)[C@H](NC(=O)[C@H](CCC(F)(F)F)CC(=O)N2CCCCC2)N=C(c2ccccc2)c2ccc(OC3CCC3)cc21`, in the assay with Cryptosporidium parvum [1], the EC50 amounted to 2520 nM and the EC90 came out at 11100 nM.
In the same order, the values of `CCCNC(=O)C[C@@H](CCC(F)(F)F)C(=O)N[C@H]1N=C(c2ccccc2)c2ccc(OC)cc2N(C)C1=O` are 81 nM and 150 nM.
With `CCNC(=O)C[C@@H](CCC(F)(F)F)C(=O)N[C@H]1N=C(c2ccccc2)c2ccccc2N(C)C1=O`, in the assay with Cryptosporidium parvum [1], the EC50 was 280 nM and the EC90 was 610 nM.
As for `CC(C)[C@H](O)C(=O)N[C@@H](C)C(=O)N[C@@H]1C(=O)N(C)CCc2ccccc21` [SEMAGACESTAT], the EC50 in the assay on Cryptosporidium parvum [2] turned out to be 4200 nM.
As for `CCCNC(=O)C[C@@H](CCC(F)(F)F)C(=O)N[C@H]1N=C(c2ccccc2)c2ccc(OC3COC3)cc2N(C)C1=O`, in the assay with Cryptosporidium parvum [1], the EC50 came to 350 nM and the EC90 was determined as 970 nM.
On the same counts, the results for `CCCNC(=O)CC(C)(C)C(=O)N[C@H]1N=C(c2ccccc2)c2ccccc2N(C)C1=O` are > 25000 nM and > 25000 nM.
On the same counts, the results for `CN1C(=O)[C@@H](NC(=O)[C@H](CCC(F)(F)F)CC(=O)N2CCCCC2)N=C(c2ccccc2)c2ccc(OC3COC3)cc21` are 110 nM and 210 nM.
Consider `CN1C(=O)[C@@H](NC(=O)[C@H](CCC(F)(F)F)[C@H](CCC(F)(F)F)C(N)=O)N=C(c2ccccc2)c2ccccc21` [OSUGACESTAT], for which the EC50 in the assay on Cryptosporidium parvum [4] stood at 1.8 nM. Besides, in the assay on Cryptosporidium parvum [1], the EC50 amounted to 1.8 nM and the EC90 came out at 2.3 nM.
